One block for each compound: values may come before it. The source made the active and inactive calls.
Columns and labels:
Escherichia coli = assay: microbe, parasite or virus in culture
[1] = biological target: Delta-type opioid receptor (Homo sapiens, UniProt P41143); assay: Counterscreen for agonists of heterodimerization of the mu 1 (OPRM1) and delta 1 (OPRD1) opioid receptors: Luminescence-based cell-based high throughput dose response assay to identify agonists of OPRD1 homodimerization. [Related pubchem assays (depositor defined):AID504326, AID504355, AID504692, AID504904, AID504905]; type: functional
Mu-type opioid receptor = Mu-type opioid receptor (Homo sapiens, UniProt P35372); assay: Counterscreen for agonists of heterodimerization of the mu 1 (OPRM1) and delta 1 (OPRD1) opioid receptors: Luminescence-based cell-based high throughput dose response assay to identify agonists of OPRM1 homodimerization.; type: functional;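 further: U2OS cells expressing OPRM1 and beta-arrestin as split beta-galactosidase partners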
[2] = biological target: 5-hydroxytryptamine receptor 5A (Homo sapiens, UniProt P47898); assay: Counterscreen for agonists of OPRM1-OPRD1 heterodimerization: luminescence-based cell-based high throughput dose response assay to identify agonists of 5-hydroxytryptamine (serotonin) 5A receptor (HTR5A). [Related pubchem assays (depositor defined):AID504326, AID504355, AID504692, AID504904, AID504905]; type: functional
HeLa = assay: ATP-based viability loss in HeLa cells – cell-based, CellTiter-Glo luminescence, cherry-pick samples, cytotoxicity control for MITF activator project, dose response (AID 540259); type: functional; details: Homo sapiens
[3] = biological target: Voltage-gated inwardly rectifying potassium channel KCNH2 (Homo sapiens, UniProt Q12809); details: Potency;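 further: confirmatory quantitative high-throughput screen measuring inhibition of hERG channel activity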
Large T antigen = Large T antigen (Simian virus 40, UniProt P03070); type: functional, Betapolyomavirus macacae;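 further: Confirmatory-stage PubChem screen for compounds that inhibit SV40 T antigen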
[4] = Trypanosoma cruzi growth suppression in host cells – NIH3T3 host cells, beta-gal luminescence, confirmation (AID 2044); type: functional, cell-based;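 further: intracellular parasites grown in NIH/3T3 mouse fibroblasts as host cells; luminescent beta-galactosidase reporter signal from transgenic T. cruzi replicating inside host cells; inhibitors lower the luminescence signal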
[5] = NIH3T3 cell viability loss – ATP luminescence, mouse fibroblasts, counter-screen, dose response (AID 2010); type: functional, cell-based;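 further: cells exposed to compound for about 90 hours before reading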
[6] = biological target: Dual specificity tyrosine-phosphorylation-regulated kinase 1A (Rattus norvegicus, UniProt Q63470); type: biochemical, Homo sapiens
Cysteine protease ATG4B = biological target: T1, Cysteine protease ATG4B (Homo sapiens, UniProt Q9Y4P1); type: functional;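 further: Fluorescence-based dose-response confirmation assay measuring inhibition of ATG4B activity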
T1 sequence (Q9Y4P1 whole entry): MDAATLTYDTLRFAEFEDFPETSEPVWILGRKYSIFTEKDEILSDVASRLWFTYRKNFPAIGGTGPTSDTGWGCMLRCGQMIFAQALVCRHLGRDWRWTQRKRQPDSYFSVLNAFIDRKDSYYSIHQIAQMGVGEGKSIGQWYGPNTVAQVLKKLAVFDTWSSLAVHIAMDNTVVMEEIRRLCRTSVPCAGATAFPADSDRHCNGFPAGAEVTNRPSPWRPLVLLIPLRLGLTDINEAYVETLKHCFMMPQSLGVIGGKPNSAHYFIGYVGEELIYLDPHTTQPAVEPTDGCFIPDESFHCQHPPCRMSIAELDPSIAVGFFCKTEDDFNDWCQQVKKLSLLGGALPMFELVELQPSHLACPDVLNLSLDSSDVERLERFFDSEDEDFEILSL

Phospholipase A2 = Phospholipase A2 (Homo sapiens, UniProt P04054); type: functional;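 further: confirmatory dose-response counterscreen on phospholipase A2, testing hits that came from an ultra-high-throughput screen for ATG4B inhibitors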
Cytochrome P450 1A2 = biological target: T2, Cytochrome P450 1A2 (Homo sapiens, UniProt P05177);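 further: PubChem cytochrome P450 panel assay, CYP1A2 panel member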
T2 sequence (P05177 whole entry): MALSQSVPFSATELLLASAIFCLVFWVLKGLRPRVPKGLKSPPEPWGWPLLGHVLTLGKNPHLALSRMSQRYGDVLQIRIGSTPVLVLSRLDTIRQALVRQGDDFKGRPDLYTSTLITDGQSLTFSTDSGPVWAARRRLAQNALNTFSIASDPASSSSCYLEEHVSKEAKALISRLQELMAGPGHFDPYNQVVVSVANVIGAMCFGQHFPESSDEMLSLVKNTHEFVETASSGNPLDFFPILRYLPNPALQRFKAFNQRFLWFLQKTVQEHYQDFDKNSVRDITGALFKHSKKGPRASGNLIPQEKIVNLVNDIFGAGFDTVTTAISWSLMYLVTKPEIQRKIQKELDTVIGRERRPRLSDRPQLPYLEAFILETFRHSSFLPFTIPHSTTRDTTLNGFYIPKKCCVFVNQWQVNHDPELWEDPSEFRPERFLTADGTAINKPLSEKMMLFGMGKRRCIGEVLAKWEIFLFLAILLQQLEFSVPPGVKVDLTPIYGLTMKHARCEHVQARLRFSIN

[7] = biological target: T3, Short transient receptor potential channel 4 (Mus musculus, UniProt Q9QUQ5); assay: calcium entry via TRPC4 opening agents – cell-based, HEK293 TRPC4/mu-opioid, Fluo-4 calcium, dose response (AID 434937); type: functional
T3 sequence (Q9QUQ5 whole entry): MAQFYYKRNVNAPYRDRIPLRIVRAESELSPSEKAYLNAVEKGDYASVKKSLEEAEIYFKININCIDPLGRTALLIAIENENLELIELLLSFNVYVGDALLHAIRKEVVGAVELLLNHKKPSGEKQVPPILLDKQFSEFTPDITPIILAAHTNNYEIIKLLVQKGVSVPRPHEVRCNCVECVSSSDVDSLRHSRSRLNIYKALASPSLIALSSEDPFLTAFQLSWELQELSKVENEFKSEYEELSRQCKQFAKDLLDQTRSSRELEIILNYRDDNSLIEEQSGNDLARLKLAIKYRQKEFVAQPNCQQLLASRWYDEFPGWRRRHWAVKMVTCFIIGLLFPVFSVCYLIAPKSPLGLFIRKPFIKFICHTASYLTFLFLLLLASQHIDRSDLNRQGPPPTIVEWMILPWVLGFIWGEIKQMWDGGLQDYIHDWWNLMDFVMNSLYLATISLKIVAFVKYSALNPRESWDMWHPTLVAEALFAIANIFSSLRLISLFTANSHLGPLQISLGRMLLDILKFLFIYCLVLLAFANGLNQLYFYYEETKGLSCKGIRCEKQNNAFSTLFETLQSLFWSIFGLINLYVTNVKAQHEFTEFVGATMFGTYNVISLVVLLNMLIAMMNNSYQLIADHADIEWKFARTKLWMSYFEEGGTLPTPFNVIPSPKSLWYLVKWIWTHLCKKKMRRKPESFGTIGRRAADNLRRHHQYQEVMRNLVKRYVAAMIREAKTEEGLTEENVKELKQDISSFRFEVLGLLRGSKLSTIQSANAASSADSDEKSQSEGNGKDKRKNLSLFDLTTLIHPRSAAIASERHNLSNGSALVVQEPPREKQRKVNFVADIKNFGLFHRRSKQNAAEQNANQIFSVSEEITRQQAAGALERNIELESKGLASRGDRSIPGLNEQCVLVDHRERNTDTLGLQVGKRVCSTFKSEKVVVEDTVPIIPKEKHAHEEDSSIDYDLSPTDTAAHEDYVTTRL

cells [8] = type: functional, cell-based
cells [9] = type: functional, cell-based; remark: listed apart in the source
Cytochrome P450 3A4 [10] = biological target: T4, Cytochrome P450 3A4 (Homo sapiens, UniProt P08684); details: Potency
Cytochrome P450 3A4 [11] = biological target: T4, Cytochrome P450 3A4
[12] = HEK-293T viability loss after treatment – luminescence, T-cell screen hits, cytotoxicity control for TCR NF-kB inhibitor project, dose response (AID 489026); type: functional, cell-based;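 further: cells exposed to compound about 14 hours before the viability readout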
Cytochrome P450 2D6 = Cytochrome P450 2D6 (Homo sapiens, UniProt P10635);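 further: CYP2D6 member of a cytochrome P450 panel assay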
Cytochrome P450 2C9 = Cytochrome P450 2C9 (Homo sapiens, UniProt P11712)
Cytochrome P450 2C9, sequence (P11712 whole entry): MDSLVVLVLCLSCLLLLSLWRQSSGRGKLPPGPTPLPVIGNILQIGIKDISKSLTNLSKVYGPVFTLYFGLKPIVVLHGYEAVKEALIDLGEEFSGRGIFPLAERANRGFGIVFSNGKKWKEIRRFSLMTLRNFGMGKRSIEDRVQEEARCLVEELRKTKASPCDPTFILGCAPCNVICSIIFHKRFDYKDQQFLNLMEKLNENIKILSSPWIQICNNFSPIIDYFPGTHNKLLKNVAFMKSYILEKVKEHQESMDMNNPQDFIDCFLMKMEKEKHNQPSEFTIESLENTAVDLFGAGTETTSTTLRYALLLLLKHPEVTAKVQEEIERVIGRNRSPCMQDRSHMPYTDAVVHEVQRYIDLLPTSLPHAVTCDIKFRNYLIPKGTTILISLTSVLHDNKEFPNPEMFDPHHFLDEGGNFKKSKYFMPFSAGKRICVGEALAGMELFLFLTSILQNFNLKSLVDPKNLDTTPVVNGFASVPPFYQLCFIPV

5-hydroxytryptamine receptor 5A, sequence (P47898 whole entry): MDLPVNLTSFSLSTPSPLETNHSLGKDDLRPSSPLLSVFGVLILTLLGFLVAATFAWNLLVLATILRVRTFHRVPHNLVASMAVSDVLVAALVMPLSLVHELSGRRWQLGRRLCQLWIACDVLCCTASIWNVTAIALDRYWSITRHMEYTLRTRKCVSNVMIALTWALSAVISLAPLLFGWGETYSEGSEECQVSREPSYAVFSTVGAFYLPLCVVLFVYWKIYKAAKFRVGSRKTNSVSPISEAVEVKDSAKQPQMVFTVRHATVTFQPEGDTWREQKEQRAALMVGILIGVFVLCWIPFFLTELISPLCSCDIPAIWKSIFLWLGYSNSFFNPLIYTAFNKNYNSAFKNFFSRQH
Delta-type opioid receptor, sequence (P41143 whole entry): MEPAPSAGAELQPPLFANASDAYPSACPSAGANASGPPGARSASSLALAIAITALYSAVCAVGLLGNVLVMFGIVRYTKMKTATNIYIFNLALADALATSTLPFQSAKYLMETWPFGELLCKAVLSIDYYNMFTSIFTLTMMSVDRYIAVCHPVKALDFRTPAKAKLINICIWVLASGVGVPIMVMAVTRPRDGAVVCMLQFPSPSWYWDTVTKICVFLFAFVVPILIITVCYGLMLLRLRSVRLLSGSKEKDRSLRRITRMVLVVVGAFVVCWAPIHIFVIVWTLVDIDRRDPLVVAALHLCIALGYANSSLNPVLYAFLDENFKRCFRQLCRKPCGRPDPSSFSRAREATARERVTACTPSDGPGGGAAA
T4 sequence (P08684 whole entry): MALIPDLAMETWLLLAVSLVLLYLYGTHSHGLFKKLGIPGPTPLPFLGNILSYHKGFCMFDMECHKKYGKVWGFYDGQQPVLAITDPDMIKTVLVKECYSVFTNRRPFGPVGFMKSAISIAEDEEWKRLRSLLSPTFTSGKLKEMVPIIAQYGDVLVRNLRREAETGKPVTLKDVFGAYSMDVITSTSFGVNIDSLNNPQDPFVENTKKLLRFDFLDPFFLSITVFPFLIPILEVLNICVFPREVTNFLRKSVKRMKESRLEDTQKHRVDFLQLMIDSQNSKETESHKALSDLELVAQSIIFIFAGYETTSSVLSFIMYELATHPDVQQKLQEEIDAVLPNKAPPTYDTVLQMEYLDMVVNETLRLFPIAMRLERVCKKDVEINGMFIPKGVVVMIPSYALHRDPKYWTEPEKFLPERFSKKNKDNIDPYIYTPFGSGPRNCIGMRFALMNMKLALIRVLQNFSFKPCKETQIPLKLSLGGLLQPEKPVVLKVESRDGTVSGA
Voltage-gated inwardly rectifying potassium channel KCNH2, sequence (Q12809 whole entry): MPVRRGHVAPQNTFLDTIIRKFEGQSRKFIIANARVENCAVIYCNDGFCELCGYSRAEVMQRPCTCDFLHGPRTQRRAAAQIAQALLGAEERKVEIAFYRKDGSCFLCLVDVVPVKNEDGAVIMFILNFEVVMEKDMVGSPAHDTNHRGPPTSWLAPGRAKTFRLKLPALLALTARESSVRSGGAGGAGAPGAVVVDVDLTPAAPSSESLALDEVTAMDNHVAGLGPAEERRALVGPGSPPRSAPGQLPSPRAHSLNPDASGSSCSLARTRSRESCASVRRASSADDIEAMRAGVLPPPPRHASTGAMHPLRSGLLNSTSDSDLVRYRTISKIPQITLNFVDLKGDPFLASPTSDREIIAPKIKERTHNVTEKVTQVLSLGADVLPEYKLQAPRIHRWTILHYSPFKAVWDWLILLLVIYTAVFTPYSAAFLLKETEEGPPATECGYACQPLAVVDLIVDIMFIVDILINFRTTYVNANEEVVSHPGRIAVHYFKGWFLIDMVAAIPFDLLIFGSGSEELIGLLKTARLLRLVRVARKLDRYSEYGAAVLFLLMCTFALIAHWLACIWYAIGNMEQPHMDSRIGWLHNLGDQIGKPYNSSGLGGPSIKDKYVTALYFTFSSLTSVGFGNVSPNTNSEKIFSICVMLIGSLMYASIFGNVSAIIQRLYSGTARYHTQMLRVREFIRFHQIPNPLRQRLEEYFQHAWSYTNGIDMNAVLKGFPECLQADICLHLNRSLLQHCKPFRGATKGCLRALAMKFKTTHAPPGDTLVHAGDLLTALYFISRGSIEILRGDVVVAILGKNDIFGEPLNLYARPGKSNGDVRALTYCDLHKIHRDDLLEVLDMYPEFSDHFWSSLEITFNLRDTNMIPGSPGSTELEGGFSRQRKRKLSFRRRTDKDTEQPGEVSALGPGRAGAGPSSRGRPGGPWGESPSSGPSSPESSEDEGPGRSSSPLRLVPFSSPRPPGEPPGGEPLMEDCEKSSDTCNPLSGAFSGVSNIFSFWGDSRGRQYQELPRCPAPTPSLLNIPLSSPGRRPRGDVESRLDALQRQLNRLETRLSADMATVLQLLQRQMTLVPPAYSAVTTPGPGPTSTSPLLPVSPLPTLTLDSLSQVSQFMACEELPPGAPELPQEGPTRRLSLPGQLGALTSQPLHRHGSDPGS
Mu-type opioid receptor, sequence (P35372 whole entry): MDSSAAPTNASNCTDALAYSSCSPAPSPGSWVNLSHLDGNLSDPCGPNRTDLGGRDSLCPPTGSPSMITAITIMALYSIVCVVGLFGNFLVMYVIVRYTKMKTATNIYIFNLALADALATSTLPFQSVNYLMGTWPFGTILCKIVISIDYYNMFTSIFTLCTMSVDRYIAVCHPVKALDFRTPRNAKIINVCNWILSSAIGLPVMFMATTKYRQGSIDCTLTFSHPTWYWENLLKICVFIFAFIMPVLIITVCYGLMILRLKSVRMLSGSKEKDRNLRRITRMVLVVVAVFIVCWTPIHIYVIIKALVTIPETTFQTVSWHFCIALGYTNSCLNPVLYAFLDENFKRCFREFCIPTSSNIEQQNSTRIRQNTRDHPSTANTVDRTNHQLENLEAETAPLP
Phospholipase A2, sequence (P04054 whole entry): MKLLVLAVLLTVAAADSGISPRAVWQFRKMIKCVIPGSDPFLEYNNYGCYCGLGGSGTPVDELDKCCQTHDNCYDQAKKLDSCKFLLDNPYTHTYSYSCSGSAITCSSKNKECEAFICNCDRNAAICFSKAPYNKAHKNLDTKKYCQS
Large T antigen, sequence (P03070 whole entry): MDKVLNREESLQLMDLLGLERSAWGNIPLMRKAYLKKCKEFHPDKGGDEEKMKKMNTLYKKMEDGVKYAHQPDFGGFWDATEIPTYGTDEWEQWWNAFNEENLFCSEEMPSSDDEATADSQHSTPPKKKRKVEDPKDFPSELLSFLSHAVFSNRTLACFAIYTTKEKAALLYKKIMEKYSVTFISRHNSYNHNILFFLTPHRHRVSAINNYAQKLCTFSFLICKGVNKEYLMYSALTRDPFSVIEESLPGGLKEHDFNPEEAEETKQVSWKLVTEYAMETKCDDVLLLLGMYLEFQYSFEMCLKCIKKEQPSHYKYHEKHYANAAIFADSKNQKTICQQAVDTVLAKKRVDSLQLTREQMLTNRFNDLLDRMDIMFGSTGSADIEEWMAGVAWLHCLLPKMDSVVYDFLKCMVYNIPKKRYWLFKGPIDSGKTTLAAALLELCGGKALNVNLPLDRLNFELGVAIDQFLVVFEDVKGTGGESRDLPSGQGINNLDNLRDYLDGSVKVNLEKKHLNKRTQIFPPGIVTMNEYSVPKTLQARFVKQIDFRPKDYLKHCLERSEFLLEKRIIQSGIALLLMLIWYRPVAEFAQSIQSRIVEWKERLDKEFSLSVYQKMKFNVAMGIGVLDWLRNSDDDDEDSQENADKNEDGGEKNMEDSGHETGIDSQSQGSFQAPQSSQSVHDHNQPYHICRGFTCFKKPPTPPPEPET
Cytochrome P450 2D6, sequence (P10635 whole entry): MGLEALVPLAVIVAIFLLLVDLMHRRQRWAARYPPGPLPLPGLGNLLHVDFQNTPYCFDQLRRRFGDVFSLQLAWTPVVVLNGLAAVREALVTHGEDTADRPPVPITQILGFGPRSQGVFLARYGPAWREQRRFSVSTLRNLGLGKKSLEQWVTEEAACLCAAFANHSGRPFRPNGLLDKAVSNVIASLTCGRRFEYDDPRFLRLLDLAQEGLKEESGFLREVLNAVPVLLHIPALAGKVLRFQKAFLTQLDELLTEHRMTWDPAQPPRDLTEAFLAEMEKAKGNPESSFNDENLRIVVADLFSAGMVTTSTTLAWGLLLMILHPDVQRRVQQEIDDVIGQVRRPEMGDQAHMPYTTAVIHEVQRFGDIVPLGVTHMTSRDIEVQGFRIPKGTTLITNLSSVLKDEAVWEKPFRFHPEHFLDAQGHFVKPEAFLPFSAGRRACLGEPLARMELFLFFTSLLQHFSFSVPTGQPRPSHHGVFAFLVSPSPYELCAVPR

SMILES: Cc1noc(C)c1COC(=O)c1cccc(S(=O)(=O)N2CCOCC2)c1
AC50 (Escherichia coli): 44.7 µM (active)

EC50 [1]: 15.5 µM (inactive) | EC50 (Mu-type opioid receptor): > 92.5 µM (inactive) | EC50 [2]: > 92.5 µM (inactive)
SMILES: COC(=O)C1=C(C)N(CCCC(=O)O)C(=O)NC1c1ccccc1OS(=O)(=O)c1ccccc1[N+](=O)[O-] (configuration not stated)

SMILES: CCn1c(/C=C/c2c[nH]c3ccccc23)nc2ccccc2c1=O
AC50 (HeLa): 50.7 µM (active)

SMILES: CCCN(CCC)[C@@H]1CCc2cccc(O)c2C1
AC50 [3]: 15.8 µM (inconclusive)

SMILES: ClC(Cl)(Cl)C(Cl)(Cl)Cl [HEXACHLOROETHANE]
AC50 [3]: 39.8 µM (inconclusive)

EC50 [1]: > 92.5 µM (inactive) | EC50 (Mu-type opioid receptor): > 92.5 µM (inactive) | EC50 [2]: > 92.5 µM (inactive)
SMILES: CN(C)C(CNC(=O)c1ccc(Br)cc1)c1ccco1 (configuration not stated)

SMILES: COc1ccccc1C(=O)Nc1ccc2c(C)cc(=O)oc2c1
AC50 (HeLa): 51.7 µM (active)

SMILES: Cc1ccc(/N=c2\oc3cc(O)ccc3cc2C(N)=O)cc1
IC50 (Large T antigen): 33.8 µM (active) | EC50 [4]: 3.69 µM (active) | EC50 [5]: > 60 µM (not active) | AC50 [6]: 0.074 µM (active)

SMILES: CC(C)(C)c1ccc(OCC2CO2)cc1 (configuration not stated)
AC50 [3]: 12.6 µM (inconclusive)

SMILES: O=C(Nc1ccc2c(c1)CCC2)c1c(F)cccc1Cl
AC50 (HeLa): > 350 µM (inactive)

IC50 (Cysteine protease ATG4B): 5.76 µM (active) | IC50 (Phospholipase A2): 4.75 µM (active)
SMILES: Cc1cccc2c1N(CCOc1ccc(C(C)(C)C)cc1)C(=O)C2=O

AC50 [6]: 0.796 µM (active)
SMILES: Oc1ccc(/C=N/n2c(S)nnc2COc2ccccc2)c(O)c1

SMILES: Cc1ccc(OCCNC(=O)c2cc(-n3cnnc3)ccc2Cl)cc1C
AC50 (Cytochrome P450 1A2): 28.2 µM (inconclusive) | AC50 (Escherichia coli): 51 µM (active)

EC50 [7]: 0.473 µM (active) | EC50 [1]: 70.5 µM (inactive) | EC50 (Mu-type opioid receptor): > 92.4 µM (inactive) | EC50 [2]: > 92.4 µM (inactive)
SMILES: COc1ccc(C(CNc2ncnc3sc(C)c(C)c23)N(C)C)cc1 (configuration not stated)

SMILES: COC(=O)c1ccc(CNC(=O)C2CCC(=O)N(Cc3ccccn3)C2)cc1 (configuration not stated)
AC50 (Escherichia coli): 131 µM (active)

IC50 (Cysteine protease ATG4B): 22.5 µM (inactive) | IC50 (Phospholipase A2): 16.8 µM (active)
SMILES: Cc1cccc(N=C(S)Nc2ccc(Oc3ccccc3)cc2)n1

SMILES: CCOc1ccc(Nc2nc(O)c3c(n2)CCCC3)cc1
AC50 (Escherichia coli): 31.7 µM (active)

SMILES: COc1ccc2[nH]c(C(=O)N/N=C/c3ccccc3OC)cc2c1
EC50 (cells [8]): > 350 µM (not active) | EC50 (cells [9]): > 350 µM (not active) | AC50 [6]: 2.17 µM (active)

SMILES: O=C(COC(=O)/C=C/c1ccc(F)cc1)Nc1nnc(-c2ccccc2)o1
AC50 (Escherichia coli): 23.2 µM (active)

SMILES: CCCCOCCOP(=O)(OCCOCCCC)OCCOCCCC
AC50 (Cytochrome P450 3A4 [10]): 25.1 µM (inconclusive) | AC50 [3]: 50.1 µM (inconclusive)

EC50 [7]: 2.11 µM (active) | EC50 [1]: 29.2 µM (inactive) | EC50 (Mu-type opioid receptor): > 92.5 µM (inactive) | EC50 [2]: > 92.5 µM (inactive)
SMILES: O=C(c1sc2ccccc2c1Cl)N(Cc1ccco1)C1CCS(=O)(=O)C1 (configuration not stated)

SMILES: COc1cc2c3c(c1OC)Oc1ccc(cc1)C[C@H]1c4c(cc(OC)c(OC)c4Oc4ccc(cc4)C[C@@H]3N(C)CC2)CCN1C
AC50 (Escherichia coli): 25.2 µM (active)

SMILES: O=C(Nc1ccc(O)cc1)c1c(O)nc2c(c1O)CCCC2
AC50 (HeLa): 76 µM (active)

EC50 [1]: 11.7 µM (inactive) | EC50 (Mu-type opioid receptor): > 92.4 µM (inactive) | EC50 [2]: > 92.4 µM (inactive)
SMILES: COC(=O)C1=C(C)N(CCCC(=O)O)C(=O)NC1c1ccccc1OS(=O)(=O)c1ccc([N+](=O)[O-])cc1 (configuration not stated)

EC50 [1]: > 92.5 µM (inactive) | EC50 (Mu-type opioid receptor): > 92.5 µM (inactive) | EC50 [2]: > 92.5 µM (inactive) | AC50 (Cytochrome P450 3A4 [11]): 25.1 µM (inconclusive)
SMILES: Cc1cccc(NC(=S)NC(=O)CCc2ccccc2)c1

SMILES: O=C(O)C1C2CCC(O2)C1C(=O)O (configuration not stated)
AC50 [3]: 1.26 µM (inconclusive)

SMILES: COC(=O)C1CCc2c(ccc3c2CCCC3)C1=O (configuration not stated)
AC50 (HeLa): > 350 µM (inactive)

SMILES: c1ccc(-c2ccc(-c3cnc4n3CCCCC4)cc2)cc1
AC50 (HeLa): 37.5 µM (active)

SMILES: O=C(N[C@@H](Cc1ccccc1)C(=O)CCl)OCc1ccccc1
IC50 [12]: > 80 µM (inactive) | AC50 (Cytochrome P450 2D6): 39.8 µM (inconclusive) | AC50 (Cytochrome P450 3A4 [11]): 1.26 µM (inconclusive) | AC50 (Cytochrome P450 2C9): 12.6 µM (inconclusive) | AC50 [3]: 25.1 µM (inconclusive)

From ChEMBL document CHEMBL1201862, “PubChem BioAssay data set” (2004)
